Patent US20240157358A1, “BIOSENSING SYSTEM AND METHOD FOR IN-SITU DETERMINATION OF METASTASIS IN A SAMPLE” (City University of Hong Kong, priority 2022, published 2024)

Test system: C. elegans
Assay: C. elegans chemotaxis assay in the microfluidic biosensor
Assay type: in vivo, Caenorhabditis elegans
Conditions: for nematode chemotaxis score: single substance at lower concentrations, corresponding to metastatic cancer, heat maps FIGS. 7C and 7D; for CIPBS level (chemotaxis index relative to PBS): CI level of PBS buffer standards defined as 1, FIG. 3B
Method: It was cultured in the OP50, a strain of Escherichia coli used to maintain C. elegans cultures, with nematode growth media (NGM) plate. Before each biosensing assay, the viability of C. elegans was assessed by probing with an inoculation needle.
All materials required for performing biosensing assay in the present biosensing system should be kept at room temperature before loading C. elegans into the biosensor to maintain their viability. Briefly, medium supernatants at −80° C. and biosensor initially stored in a 4° C. freezer were thawed at room temperature. Adult C. elegans were collected in 1.5 mL tubes and washed twice with phosphate-buffered saline (PBS) buffer (Gibco, Waltham, MA, USA) before assay. All clinical samples to be tested were transported at room temperature, and the biosensing assay should be completed within 4 hours from the time of collection. The clinical samples should be mixed well before loading, and about 1 ml of the sample was taken into a 1.5 ml tube for each biosensing assay. The remaining samples could be sealed and stored at −80° C. for further use.
During each biosensing assay, approximately 50-100 μl of PBS containing 100 C. elegans was gently pipetted into the middle of the second layer where the organism loading region is disposed without compromising the viability of C. elegans and disrupting the integrity of the NGM agar, thereby increasing the reliability of the biosensing assay results. Once the C. elegans were settled, the pressure pump was started immediately to flow the test samples, comparative sample and/or negative control to the corresponding bio-incubation chambers from the fluid inlets at the first layer and through different fluid channels to reach the second layer without damaging the NGM agar integrity. In certain embodiments, an optimal flow rate of the fluid applied to the biosensor is about 0.5 mL/min. […] By this optimal flow rate, all fluid channels can be primed in 1 min and about 10 to 100 μl droplets can be formed at each fluid outlet of the fluid channels. Because of that, the volume of the test samples applied in each fluid inlet at each round of biosensing assay can be less than 1 mL. […]
To standardize the quantitative readouts, a chemotaxis index (CI) relative to the CI measured from PBS (CIPBS) was derived by the following Equation:
The CIPBS level readouts were evaluated with the present biosensing system using a range of glutamate concentration levels that included concentrations detected from MCF-7 and MDA-MB-231 clusters (0.02 mg/ml, 0.04 mg/ml, 0.06 mg/ml, 0.08 mg/ml, and 0.1 mg/ml) (FIG. 3A). CI level readouts were modified for parallel comparison of all concentrations, with the CI level obtained from PBS buffer standards defined as 1.

Row | Structure (SMILES) | nematode chemotaxis score | CIPBS level (chemotaxis index relative to PBS) (glutamate concentration 0.02 mg/ml) | CIPBS level (chemotaxis index relative to PBS) (glutamate concentration 0.1 mg/ml (highest tested))
1 | O=C(O)[C@@H]1CCCN1 [L-proline] | around 6 |  | 
2 | N[C@@H](CCC(=O)O)C(=O)O [glutamate] |  | 3.6±0.03 | 1.1±0.04
3 | NC(N)=O [urea] | around 6 |  | 
